# Measured values taken from paper PMC10713630, “Elucidation of the structural basis for ligand binding and translocation in conserved insect odorant receptor co-receptors” (Nature Communications, 2023).
# “And” between values parts separate entries of the source, which are not always exact repeats. Equal entries are not always repeated.
# Key:
# [1] = target: DmelOrco K373E (Drosophila melanogaster, UniProt Q9VNB5, K373E); test: TEVC recording of VUAA1-induced current, DmelOrco K373E in Xenopus oocytes; assay type: cell-based; parameters: VUAA1-induced current, K373E: unit not given here
# Source text: (§1) All Orco gene sequences were optimized[63] for protein expression in Xenopus laevis oocytes with the GenSmartTM Codon optimization Tool and subcloned into a pGEMHE-derived vector. The wildtype gene of Drosophila melanogaster Orco (DmelOrco) was synthesized by Genscript and subcloned with XmaI/XhoI cloning sites. Site-directed mutagenesis of DmelOrco was done by PCR with the Q5® site directed mutagenesis kit (NEB) using primers optimized with the NEBase Changer online tool and following the supplier’s protocol. After transformation of commercial competent bacteria (XL10 Gold) by standard heat-shock protocol and overnight culture in ampicillin-containing LB plates, positive clones were identified by electrophoretic restriction profile and external sequencing (Genewiz). DNAs of positive clones were amplified with Qiagen MidiPrep Kit and the ORF was fully sequenced. For in vitro transcription, DNAs were linearized with restriction enzyme NotI that cuts a unique site in the 3′ region of the polyA tail. […] DNA and RNA were analyzed by agarose-gel electrophoresis and quantified by spectrophotometry. […]
# (§2) Whole cell currents were recorded with the two-electrode voltage-clamp (TEVC) technique with the HiClamp robot (MultiChannel System). […] Data were extracted with M. Vivaudou’s programs[65] and statistically analyzed with Prism 8 (Graphpad).
# [2] = target: DmelOrco Y400W (Drosophila melanogaster, UniProt Q9VNB5, Y400W); test: TEVC recording of VUAA1-induced current, DmelOrco Y400W in Xenopus oocytes; assay type: cell-based; settings: 500 µM VUAA1, TEVC
# Source text: as §1, §2
# [3] = target: DmelOrco M210A (Drosophila melanogaster, UniProt Q9VNB5, M210A); test: TEVC recording of VUAA1-induced current, DmelOrco M210A in Xenopus oocytes; assay type: cell-based; settings: 500 µM VUAA1, TEVC
# Source text: as §1, §2
# [4] = tested on: MdesOrco; settings: cited from earlier work
# [5] = target: DmelOrco Y397F (Drosophila melanogaster, UniProt Q9VNB5, Y397F); test: TEVC recording of VUAA1-induced current, DmelOrco Y397F in Xenopus oocytes; assay type: cell-based; parameters: VUAA1-induced current, Y397F: unit not given here
# Source text: as §1, §2
# [6] = target: T1, DmelOrco WT (Drosophila melanogaster, UniProt Q9VNB5); test: TEVC recording of VUAA1-induced current, DmelOrco WT in Xenopus oocytes; assay type: cell-based; parameters: VUAA1-induced current, WT: unit not given here; settings: for VUAA1-induced current, WT: individual oocytes
# T1 sequence (Q9VNB5 1-486): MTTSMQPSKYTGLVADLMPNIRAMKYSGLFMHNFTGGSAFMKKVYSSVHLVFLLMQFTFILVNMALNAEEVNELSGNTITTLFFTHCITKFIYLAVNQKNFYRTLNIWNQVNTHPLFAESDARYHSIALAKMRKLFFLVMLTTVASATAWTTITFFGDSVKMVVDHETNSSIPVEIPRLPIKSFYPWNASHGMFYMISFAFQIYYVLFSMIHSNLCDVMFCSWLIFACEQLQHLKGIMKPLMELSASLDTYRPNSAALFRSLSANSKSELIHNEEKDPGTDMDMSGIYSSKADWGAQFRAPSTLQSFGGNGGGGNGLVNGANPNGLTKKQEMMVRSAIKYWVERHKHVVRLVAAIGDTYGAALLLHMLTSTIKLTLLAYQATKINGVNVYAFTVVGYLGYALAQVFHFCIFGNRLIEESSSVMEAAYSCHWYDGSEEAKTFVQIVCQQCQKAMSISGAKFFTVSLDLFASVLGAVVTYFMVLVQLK
# Source text: (§3) All Orco gene sequences were optimized[63] for protein expression in Xenopus laevis oocytes with the GenSmartTM Codon optimization Tool and subcloned into a pGEMHE-derived vector. The wildtype gene of Drosophila melanogaster Orco (DmelOrco) was synthesized by Genscript and subcloned with XmaI/XhoI cloning sites. Site-directed mutagenesis of DmelOrco was done by PCR with the Q5® site directed mutagenesis kit (NEB) using primers optimized with the NEBase Changer online tool and following the supplier’s protocol. After transformation of commercial competent bacteria (XL10 Gold) by standard heat-shock protocol and overnight culture in ampicillin-containing LB plates, positive clones were identified by electrophoretic restriction profile and external sequencing (Genewiz). DNAs of positive clones were amplified with Qiagen MidiPrep Kit and the ORF was fully sequenced. For in vitro transcription, DNAs were linearized with restriction enzyme NotI that cuts a unique site in the 3′ region of the polyA tail. The linearized DNAs were purified by the standard phenol:chloroform extraction method and transcribed into mRNA using the T7 ultra mMessage mMachine kit (Thermo Fisher Scientific). mRNAs were purified with the NucleoSpin RNA plus XS kit (Machery-Nagel). DNA and RNA were analyzed by agarose-gel electrophoresis and quantified by spectrophotometry.
# (§4) Xenopus laevis oocytes were prepared, as previously described. Briefly, oocytes were defolliculated after surgical retrieval by type 1 A collagenase over 2-3 h under smooth horizontal agitation. They were manually selected and incubated at 19 °C in modified-Barth’s solution (1 mM KCl, 0.82 mM MgSO4, 88 mM NaCl, 2.4 mM NaHCO3, 0.41 mM CaCl2, Ca(NO3)2 0.3 mM, 16 mM HEPES, pH 7.4) supplemented with 100 U mL^−1 of penicillin and streptomycin and 0.1 mg mL^−1 of gentamycin. Each oocyte was micro-injected with the Nanoject instrument (Drummond) with 50 nL of 20 ng of mRNA coding for the Orco of interest. Injected oocytes were incubated individually in 96-well plates for 4 days at 19 °C in the same buffer. Different batches of oocytes have been tested per construct. The results of the mutants of interest have been confirmed by a second set of experiments comparing the amplitudes with WT in the same day and from the same batch of oocytes (Supplementary Fig. 11).
# (§5) Whole cell currents were recorded with the two-electrode voltage-clamp (TEVC) technique with the HiClamp robot (MultiChannel System). Microelectrodes were filled with 3 M KCl. The high K^+ buffer used for recordings was composed of 91 mM KCl, 1 mM MgCl2, 1.8 mM CaCl2, 5 mM HEPES, pH 7.4. Membrane voltage was clamped to −50 mV and VUAA1 was applied for 60 s. Data were extracted with M. Vivaudou’s programs[65] and statistically analyzed with Prism 8 (Graphpad).
# [7] = target: DmelOrco Y390F (Drosophila melanogaster, UniProt Q9VNB5, Y390F); test: TEVC recording of VUAA1-induced current, DmelOrco Y390F in Xenopus oocytes; assay type: cell-based; settings: 500 µM VUAA1, TEVC
# Source text: as §1, §2
# [8] = target: DmelOrco T80W (Drosophila melanogaster, UniProt Q9VNB5, T80W); test: TEVC recording of VUAA1-induced current, DmelOrco T80W in Xenopus oocytes; assay type: cell-based; parameters: VUAA1-induced current, T80W: unit not given here; settings: for VUAA1-induced current, T80W: individual oocytes
# Source text: as §3, §4, §5
# [9] = target: DmelOrco F84S (Drosophila melanogaster, UniProt Q9VNB5, F84S); test: TEVC recording of VUAA1-induced current, DmelOrco F84S in Xenopus oocytes; assay type: cell-based; settings: 500 µM VUAA1, TEVC
# Source text: as §1, §2
# [10] = Fig.4i dose-response, VUAA1 10 µM (Log(M) -5)
# [11] = Fig.4i dose-response, VUAA1 25 µM (Log(M) -4.6)
# [12] = Fig.4i dose-response, VUAA1 50 µM (Log(M) -4.3)
# [13] = Fig.4i dose-response, VUAA1 100 µM (Log(M) -4)
# [14] = Fig.4i dose-response, VUAA1 500 µM (Log(M) -3.3)
# DmelOrco Y397F, sequence (Q9VNB5 whole entry Y397F, the tested form may be a part): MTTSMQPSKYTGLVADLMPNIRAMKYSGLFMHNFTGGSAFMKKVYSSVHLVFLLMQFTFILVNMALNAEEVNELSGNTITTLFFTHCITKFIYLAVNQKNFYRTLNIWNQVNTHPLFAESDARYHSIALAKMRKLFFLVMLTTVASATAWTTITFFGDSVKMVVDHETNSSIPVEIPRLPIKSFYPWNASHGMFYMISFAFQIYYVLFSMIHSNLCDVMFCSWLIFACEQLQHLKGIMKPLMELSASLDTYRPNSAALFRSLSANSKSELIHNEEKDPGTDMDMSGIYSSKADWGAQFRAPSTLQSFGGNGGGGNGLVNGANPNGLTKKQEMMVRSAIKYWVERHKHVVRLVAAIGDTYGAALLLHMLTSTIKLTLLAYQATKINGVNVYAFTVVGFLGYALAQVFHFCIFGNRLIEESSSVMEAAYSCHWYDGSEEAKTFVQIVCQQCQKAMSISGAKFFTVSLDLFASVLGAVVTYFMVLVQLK
# DmelOrco K373E, sequence (Q9VNB5 whole entry K373E, the tested form may be a part): as the sequence (Q9VNB5 whole entry Y397F, the tested form may be a part) above, with K373E, F397Y counted along it
# DmelOrco T80W, sequence (Q9VNB5 whole entry T80W, the tested form may be a part): as the sequence (Q9VNB5 whole entry Y397F, the tested form may be a part) above, with T80W, F397Y counted along it
# DmelOrco F84S, sequence (Q9VNB5 whole entry F84S, the tested form may be a part): as the sequence (Q9VNB5 whole entry Y397F, the tested form may be a part) above, with F84S, F397Y counted along it
# DmelOrco Y390F, sequence (Q9VNB5 whole entry Y390F, the tested form may be a part): as the sequence (Q9VNB5 whole entry Y397F, the tested form may be a part) above, with Y390F, F397Y counted along it
# DmelOrco Y400W, sequence (Q9VNB5 whole entry Y400W, the tested form may be a part): as the sequence (Q9VNB5 whole entry Y397F, the tested form may be a part) above, with F397Y, Y400W counted along it
# DmelOrco M210A, sequence (Q9VNB5 whole entry M210A, the tested form may be a part): as the sequence (Q9VNB5 whole entry Y397F, the tested form may be a part) above, with M210A, F397Y counted along it
smiles,measurement,setting,value
"CCc1ccc(NC(=O)CSc2nnc(-c3cccnc3)n2CC)cc1 [VUAA1, N-(4-ethylphenyl)−2-((4-ethyl-5-(3-pyridinyl)−4H-1,2,4-triazol-3-yl)thio)acetamide]",Current induced by VUAA1 (median),"[1]; 500 µM VUAA1, TEVC, K373E",7.47 µA
same,"VUAA1-induced current, K373E","[1]; Fig.4b, individual oocytes",4.46 and 4.23 and 7.21 and 7.53 and 6.82 and 10.02 and 4.07 and 5.42 and 9.17 and 11.32 and 9.58 and 7.4 and 16.4 and 9.48 and 7.37 and 12.12
same,Response to VUAA1 compared with WT,[2],did not significantly change the response
same,Current induced by VUAA1 (median),[3],5.72 µA
same,Sensitivity of MdesOrco to VUAA1,[4],VUAA1-insensitive
same,Response to VUAA1 compared with WT,"[5]; 500 µM VUAA1, TEVC, Y397F",did not significantly change the amplitude of activation
same,"VUAA1-induced current, Y397F","[5]; Fig.4b, individual oocytes",14.1 and 7.4 and 4.67 and 7.65 and 5.6 and 7.22 and 3.47 and 4.51 and 1.74 and 9.4 and 9.69 and 15.89
same,Current induced by VUAA1 (median),"[6]; 500 µM VUAA1, TEVC, WT",4.71 µA
same,Current amplitude in the presence of VUAA1 compared with Orcos of other species,"[6]; 500 µM VUAA1, TEVC, versus AbakOrco, AalbOrco, CquiOrco",highest current amplitude
same,"VUAA1-induced current, WT",[6]; Fig.4b,1.7 and 1.54 and 2.24 and 5.84 and 5.68 and 11.97 and 10.02 and 8.3 and 7.33 and 2.12 and 1.87 and 2.7 and 3.73 and 16.35 and 2.15 and 5.7
same,"VUAA1-induced current, WT",[6]; [10],0.03 and 0.04 (2×) and 0.02 and 0.09 and 0.05 and 0.06
same,"VUAA1-induced current, WT",[6]; [11],0.27 and 0.36 and 0.04 (4×) and 0.08 (2×) and 0.03 (3×) and 0.02 and 0.05 (3×) and 0.15 and 0 and 0.09 and 0.12 and 0.07
same,"VUAA1-induced current, WT",[6]; [12],0.58 and 0.72 and 0.4 (2×) and 0.37 and 0.54 and 0.11 and 0.17 and 0.26 (3×) and 0.21 and 0.34 and 0.77 and 1.04 and 1.01 (2×) and 0.78 and 1.15 and 1.23
same,"VUAA1-induced current, WT",[6]; [13],1.33 and 1.71 and 2.65 and 2.17 (2×) and 2.77 and 1.82 and 2.07 and 2.22 and 1.61 and 2.38 and 1.2 and 1.79 and 2.19 and 2.6 and 2.64 (2×) and 1.94 and 2.47 and 2.54
same,"VUAA1-induced current, WT",[6]; [14],3.64 (2×) and 4.55 and 3.85 and 4.63 and 4.01 and 4.3 and 4.47 and 4.77 and 5.33 and 1.53 and 3.97 and 4.65 and 2.65 and 2.64 and 2.78 (2×)
same,EC50,"[6]; VUAA1 dose-response curve, TEVC, WT",94.5 µM
same,Imax,"[6]; concentration-effect curve of VUAA1, TEVC, WT",3.97 µA
same,Response to VUAA1 compared with WT,[7],did not show significant change
same,Response to VUAA1 compared with WT,"[8]; 500 µM VUAA1, TEVC, T80W",significantly reduced or abolished the activation
same,"VUAA1-induced current, T80W",[8]; Fig.4b,0.01 and 0.63 and 0.07 and 0.04 and 0.05 and 0.57 and 0.84 and 0.02
same,"VUAA1-induced current, T80W",[8]; [10],0.03 and 0.06 (2×) and 0.07 and 0.2 (2×) and 0 and 0.12
same,"VUAA1-induced current, T80W",[8]; [11],0.05 and 0.08 and 0.11 and 0.35 and 0.01 and 0.07 and 0.14 and 0.15
same,"VUAA1-induced current, T80W",[8]; [12],0.09 and 0.1 and 0.13 and 0.45 and 0.01 and 0.05 and 0.31 and 0.15
same,"VUAA1-induced current, T80W",[8]; [13],0.12 and 0.1 and 0.13 (2×) and 0.42 and 0 and 0.08 and 0.29
same,"VUAA1-induced current, T80W",[8]; [14],0.19 and 0.12 (3×) and 0.14 and 0.45 and 0.01 and 0.07
same,"VUAA1-induced current, T80W","[8]; Fig.4i dose-response, VUAA1 1000 µM (Log(M) -3)",0.26 and 0.16 and 0.18 and 0.47 and 0.02 and 0.23 and 0.31 and 0.1
same,Imax,"[8]; concentration-effect curve of VUAA1, TEVC, T80W",0.23 µA
same,Response to VUAA1 compared with WT,[9],decreased the response
